Measured values from patent US11524966B1 (Valo Early Discovery, Inc., priority 2017, dated 2022).

Biological target: T1, USP28 (His-tagged USP28-FL-mammalian) (Homo sapiens, UniProt Q96RU2)
T1 construct: Expression of USP28 (1-1077)-TEV-6*His (pTT5 vector); made in house; host or cells: Expi293f cells (pTT5 vector)
T1 sequence (Q96RU2 1-1077): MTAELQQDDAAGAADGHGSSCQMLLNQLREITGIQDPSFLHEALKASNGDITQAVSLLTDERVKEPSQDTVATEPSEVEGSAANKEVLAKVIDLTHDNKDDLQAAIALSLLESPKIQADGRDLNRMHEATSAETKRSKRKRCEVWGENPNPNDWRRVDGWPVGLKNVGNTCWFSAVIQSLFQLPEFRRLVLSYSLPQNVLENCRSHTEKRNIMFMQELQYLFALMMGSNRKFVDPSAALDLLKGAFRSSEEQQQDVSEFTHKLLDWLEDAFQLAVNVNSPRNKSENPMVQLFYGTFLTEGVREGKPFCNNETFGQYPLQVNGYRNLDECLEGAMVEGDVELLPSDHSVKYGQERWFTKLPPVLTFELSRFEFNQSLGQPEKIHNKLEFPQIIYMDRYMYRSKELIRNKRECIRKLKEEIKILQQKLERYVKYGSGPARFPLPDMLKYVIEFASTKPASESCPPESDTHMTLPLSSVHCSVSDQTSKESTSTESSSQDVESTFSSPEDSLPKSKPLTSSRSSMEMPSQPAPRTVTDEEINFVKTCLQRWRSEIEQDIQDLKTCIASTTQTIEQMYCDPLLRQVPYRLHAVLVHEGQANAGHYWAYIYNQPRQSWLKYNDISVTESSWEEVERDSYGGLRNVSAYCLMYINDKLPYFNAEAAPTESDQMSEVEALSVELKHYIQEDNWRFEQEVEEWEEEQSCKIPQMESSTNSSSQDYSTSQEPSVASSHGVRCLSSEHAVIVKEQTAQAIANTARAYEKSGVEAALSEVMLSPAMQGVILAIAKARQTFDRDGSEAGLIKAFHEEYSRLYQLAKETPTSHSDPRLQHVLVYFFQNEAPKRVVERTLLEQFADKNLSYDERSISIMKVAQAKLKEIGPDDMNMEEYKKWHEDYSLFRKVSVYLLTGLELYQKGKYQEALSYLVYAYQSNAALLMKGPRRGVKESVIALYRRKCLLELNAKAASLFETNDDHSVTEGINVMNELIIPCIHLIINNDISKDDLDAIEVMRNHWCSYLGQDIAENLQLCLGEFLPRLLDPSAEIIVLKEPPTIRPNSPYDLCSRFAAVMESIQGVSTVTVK
Assay: Ubiquitin-Rhodamine 110 Assay for USP28 Activity, Example A-1(a)
Type: biochemical
Conditions: Ubiquitin-Rhodamine 110 assay, Example A-1(a); read-out: USP28 A-1(a) IC50 range
Method in brief: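 Full-length His-tagged human USP28 (1-1077, Expi293f-expressed), […], with 25 nM Ub-Rh110 (<<Km) in pH 8.0 Tris buffer with BME, BGG, Triton X-100. 10-point dilutions (25 μM-1.3 nM), 45 min at room temperature, citric acid stop, fluorescence 485/535 nm; IC50 by 4-parameter fit.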

Structure (SMILES) | IC50 [µM]
Cc1ccc2c(N)c(C(=O)N[C@@H]3COc4cc(N5C[C@H]6CNC[C@@H]6C5)ccc4C3)sc2n1 [Example 44, 3-amino-N-((S)-7-((3aR,6aR)-hexahydropyrrolo[3,4-c]pyrrol-2(1H)-yl)chroman-3-yl)-6-methylthieno[2,3-b]pyridine-2-carboxamide] | > 2
Nc1c(C(=O)N[C@H]2COc3cc(N4CCNCC4)ccc3C2)sc2nc(C3CC3)sc12 [Example 45] | 0.05 to 0.2
Cc1nc2sc(C(=O)N[C@@H]3COc4cc(N5CC6CCC(C5)N6)c(F)cc4C3)c(N)c2s1 [Example 46, N-((3S)-7-(3 8-diazabicyclo[3.2.1]octan-3-yl)-6-fluorochroman-3-yl)-6-amino-2-methylthieno[2,3-d]thiazole-5-carboxamide] | 0.001 to 0.05
Cc1nc2sc(C(=O)N[C@H]3COc4cc(N5CC6CCC(C5)N6)c(F)cc4C3)c(N)c2s1 [Example 47, N-((3R)-7-(3,8-diazabicyclo[3.2.1]octan-3-yl)-6-fluorochroman-3-yl)-6-amino-2-methylthieno[2,3-d]thiazole-5-carboxamide] | 0.2 to 2
Cc1ccc2c(N)c(C(=O)N[C@H]3COc4cc(N5CCNCC5)cc(Cl)c4C3)sc2n1 [Example 48, (R)-3-amino-N-(5-chloro-7-(piperazin-1-yl)chroman-3-yl)-6-methylthieno[2,3-b]pyridine-2-carboxamide] | 0.001 to 0.05
Cc1ccc2c(N)c(C(=O)N[C@@H]3COc4cc(N5CCNCC5)cc(Cl)c4C3)sc2n1 [Example 49, (S)-3-amino-N-(5-chloro-7-(piperazin-1-yl)chroman-3-yl)-6-methylthieno[2,3-b]pyridine-2-carboxamide] | 0.2 to 2
O=C(N[C@H]1COc2cc(N3CC4CCC(C3)N4)ccc2C1)c1cnc2c(c1)CCCN2 [Example 50, N-((3R)-7-(3,8-diazabicyclo[3.2.1]octan-3-yl)chroman-3-yl)-5,6,7,8-tetrahydro-1,8-naphthyridine-3-carboxamide] | 0.05 to 0.2
O=C(N[C@H]1COc2cc(N3CC4CCC(C3)N4)ccc2C1)c1cnc2c(c1)CCCO2 [Example 51, N-((3R)-7-(3,8-diazabicyclo[3.2.1]octan-3-yl)chroman-3-yl)-3,4-dihydro-2H-pyrano[2,3-b]pyridine-6-carboxamide] | 0.2 to 2
O=C(N[C@H]1COc2cc(N3CCNCC3)ccc2C1)c1ccc(NCc2ccccc2)nc1 [Example 52, (R)-6-(benzylamino)-N-(7-(piperazin-1-yl)chroman-3-yl)nicotinamide] | 0.2 to 2
C[C@H](Nc1ccc(C(=O)N[C@H]2COc3cc(N4CCNCC4)ccc3C2)cn1)c1ccccc1 [Example 53, 6-(((S)-1-phenylethyl)amino)-N-((R)-7-(piperazin-1-yl)chroman-3-yl)nicotinamide] | > 2
C[C@@H](Nc1ccc(C(=O)N[C@H]2COc3cc(N4CCNCC4)ccc3C2)cn1)c1ccccc1 [Example 54, 6-(((R)-1-phenylethyl)amino)-N-((R)-7-(piperazin-1-yl)chroman-3-yl)nicotinamide] | > 2
Cc1ccc2c(N)c(C(=O)N[C@H]3COc4c(F)c(N5CCNCC5)cc(F)c4C3)sc2n1 [Example 55, (R)-3-amino-N-(5,8-difluoro-7-(piperazin-1-yl)chroman-3-yl)-6-methylthieno[2,3-b]pyridine-2-carboxamide] | 0.001 to 0.05
Cc1nc2sc(C(=O)N[C@H]3COc4c(F)c(N5CCNCC5)cc(F)c4C3)c(N)c2s1 [Example 56, (R)-6-amino-N-(5,8-difluoro-7-(piperazin-1-yl)chroman-3-yl)-2-methylthieno[2,3-d]thiazole-5-carboxamide] | 0.001 to 0.05
O=C(N[C@H]1COc2cc(N3CCNCC3)ccc2C1)c1cnc2c(c1)CC[C@H]2O [Example 57, (R)-7-hydroxy-N-((R)-7-(piperazin-1-yl)chroman-3-yl)-6,7-dihydro-5H-cyclopenta[b]pyridine-3-carboxamide] | > 2
O=C(N[C@H]1COc2cc(N3CCNCC3)ccc2C1)c1cnc2c(c1)CC[C@@H]2O [Example 58, (S)-7-hydroxy-N-((R )-7-(piperazin-1-yl)chroman-3-yl)-6,7-dihydro-5H-cyclopenta[b]pyridine-3-carboxamide] | 0.2 to 2
O=C(N[C@H]1COc2cc(N3CCNCC3)ccc2C1)c1cnc2c(ccn2Cc2ccccc2)c1 [Example 59, (R)-1-benzyl-N-(7-(piperazin-1-yl)chroman-3-yl)-1H-pyrrolo[2,3-b]pyridine-5-carboxamide] | 0.001 to 0.05
Cc1cnc2c(N)c(C(=O)N[C@H]3COc4c(C#N)c(N5CCNCC5)cc(F)c4C3)sc2n1 [Example 60, (R)-7-amino-N-(8-cyano-5-fluoro-7-(piperazin-1-yl)chroman-3-yl)-3-methylthieno[2,3-b]pyrazine-6-carboxamide] | 0.05 to 0.2
Cc1ccc2c(N)c(C(=O)N[C@H]3COc4cc(N5CCNCC5)c(F)c(F)c4C3)sc2n1 [Example 61, (R)-3-amino-N-(5,6-difluoro-7-(piperazin-1-yl)chroman-3-yl)-6-methylthieno[2,3-b]pyridine-2-carboxamide] | 0.001 to 0.05
Cc1ccc2c(N)c(C(=O)N[C@H]3COc4cc([C@H]5CCNC[C@H]5O)ccc4C3)sc2n1 [Example 62, 3-amino-N-((R)-7-((3S,4R)-3-hydroxypiperidin-4-yl)chroman-3-yl)-6-methylthieno[2,3-b]pyridine-2-carboxamide] | 0.001 to 0.05
Cc1ccc2c(N)c(C(=O)N[C@H]3COc4cc([C@@H]5CCNC[C@@H]5O)ccc4C3)sc2n1 [Example 63, 3-amino-N-((R)-7-((3R,4S)-3-hydroxypiperidin-4-yl)chroman-3-yl)-6-methylthieno[2,3-b]pyridine-2-carboxamide] | 0.001 to 0.05
Cc1ccc2c(N)c(C(=O)N[C@H]3COc4cc([C@H]5CCNC[C@@H]5O)ccc4C3)sc2n1 [Example 64, 3-amino-N-((R)-7-((3R,4R)-3-hydroxypiperidin-4-yl)chroman-3-yl)-6-methylthieno[2,3-b]pyridine-2-carboxamide] | 0.001 to 0.05
Cc1ccc2c(N)c(C(=O)N[C@H]3COc4cc([C@@H]5CCNC[C@H]5O)ccc4C3)sc2n1 [Example 65, 3-amino-N-((R)-7-((3S,4S)-3-hydroxypiperidin-4-yl)chroman-3-yl)-6-methylthieno[2,3-b]pyridine-2-carboxamide] | 0.001 to 0.05
Cc1nc2sc(C(=O)N[C@H]3COc4cc(N5CCNCC5)c(F)c(F)c4C3)c(N)c2s1 [Example 66, (R)-6-amino-N-(5,6-difluoro-7-(piperazin-1-yl)chroman-3-yl)-2-methylthieno[2,3-d]thiazole-5-carboxamide] | 0.001 to 0.05
Cc1cnc2c(N)c(C(=O)N[C@H]3COc4cc(N5CCNCC5)c(C#N)c(F)c4C3)sc2n1 [Example 67, (R)-7-amino-N-(6-cyano-5-fluoro-7-(piperazin-1-yl)chroman-3-yl)-3-methylthieno[2,3-b]pyrazine-6-carboxamide] | 0.001 to 0.05
Cc1ccc2c(N)c(C(=O)N[C@H]3COc4c(F)c(N5CCNCC5)cc(F)c4C3)oc2n1 [Example 68, (R)-3-amino-N-(5,8-difluoro-7-(piperazin-1-yl)chroman-3-yl)-6-methylfuro[2,3-b]pyridine-2-carboxamide] | 0.2 to 2
Cc1ccc2c(N)c(C(=O)N[C@H]3COc4cc([C@H]5CCNCC5(F)F)ccc4C3)sc2n1 [Example 69, 3-amino-N-((R)-7-((R)-3,3-difluoropiperidin-4-yl)chroman-3-yl)-6-methylthieno[2,3-b]pyridine-2-carboxamide] | 0.001 to 0.05
Cc1ccc2c(N)c(C(=O)N[C@H]3COc4cc([C@@H]5CCNCC5(F)F)ccc4C3)sc2n1 [Example 70, 3-amino-N-((R)-7-((S)-3,3-difluoropiperidin-4-yl)chroman-3-yl)-6-methylthieno[2,3-b]pyridine-2-carboxamide] | 0.001 to 0.05
Cc1cnc2c(N)c(C(=O)N[C@H]3COc4cc(N5CCNCC5)ncc4C3)sc2n1 [Example 71, (R)-7-amino-3-methyl-N-(7-(piperazin-1-yl)-3,4-dihydro-2H-pyrano[3,2-c]pyridin-3-yl)thieno[2,3-b]pyrazine-6-carboxamide] | 0.05 to 0.2
